Tests used:
[1] = tested on: bamyardgrass; test: Test B flood test barnyardgrass; assay type: in vivo, Echinochloa crus-galli
Procedure, shortened: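 Each value is a visual injury score relative to controls, with 10 meaning complete control and 0 no effect. Evaluation took place twelve to sixteen days after the 2-leaf-stage plants were treated and kept in the greenhouse.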

[2] = tested on: crabgrass; test: Test B pre/postemergence crabgrass; assay type: in vivo, Digitaria sanguinalis; conditions: for Crabgrass plant response rating (0 to 10 scale): 0 is no effect
Procedure, shortened: (§1)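 Test chemicals in a non-phytotoxic solvent mixture with surfactant were sprayed preemergence onto planted seeds and postemergence onto plants 2 to 18 cm tall (1- to 4-leaf stage). After twelve to sixteen days in a greenhouse, injury was visually rated against untreated controls from 0 (no effect) to 10 (complete control).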

[3] = tested on: morningglory; test: Test B pre/postemergence morningglory; assay type: in vivo, Ipomoea hederacea; conditions: for Morningglory plant response rating (0 to 10 scale): 0 is no effect
Procedure, shortened: as §1

[4] = tested on: blackgrass; test: Test B pre/postemergence blackgrass; assay type: in vivo, Alopecurus myosuroides; conditions: for Blackgrass plant response rating (0 to 10 scale): 0 is no effect
Procedure, shortened: as §1

[5] = Postemergence, Rate 62 g/ha, scale 0 to 10, 0 is no effect, 10 is complete control
[6] = Postemergence, Rate 1000 g/ha, scale 0 to 10 (0 no effect, 10 complete control)
[7] = Rate 125 g/ha, Postemergence section (flood test species), scale 0 to 10, 0 no effect, 10 complete control
[8] = Rate 500 g/ha, listed under Postemergence (flood test species), scale 0 to 10, 0 no effect, 10 complete control
[9] = flood test, listed under Postemergence, Rate 250 g/ha, scale 0 to 10, 0 no effect, 10 complete control
[10] = Postemergence, Rate 125 g/ha, scale of 0 to 10 where 0 is no effect and 10 is complete control
[11] = Postemergence, Rate 250 g/ha, scale 0 to 10, 0 no effect, 10 complete control
[12] = Preemergence, Rate 62 g/ha, scale 0 to 10 (0 no effect, 10 complete control)
[13] = Preemergence, Rate 125 g/ha, scale 0 to 10 (0 no effect, 10 complete control)
[14] = Preemergence, Rate 250 g/ha, scale of 0 to 10 where 0 is no effect and 10 is complete control
[15] = Preemergence, Rate 500 g/ha, scale 0 (no effect) to 10 (complete control)
[16] = Rate 62 g/ha, Postemergence, scale of 0 to 10 where 0 is no effect and 10 is complete control
[17] = Rate 500 g/ha, Postemergence, scale 0 to 10, 0 no effect, 10 complete control
[18] = Rate 1000 g/ha, Preemergence, scale 0 to 10 (0 no effect, 10 complete control)
[19] = Preemergence, Rate 500 g/ha, scale 0 to 10 (0 no effect, 10 complete control)
[20] = Postemergence (flood test species), Rate 125 g/ha, scale of 0 to 10 where 0 is no effect and 10 is complete control
[21] = Rate 250 g/ha, Postemergence (flood test), scale 0 to 10, 0 is no effect, 10 is complete control
[22] = Rate 500 g/ha, headed Pre-emergence (flood test species), scale 0 to 10 (0 no effect, 10 complete control)
[23] = Preemergence, Rate 125 g/ha, 10 is complete control
[24] = Preemergence, Rate 250 g/ha, scale 0 to 10, 0 is no effect, 10 is complete control
[25] = Rate 250 g/ha, Postemergence, scale 0 to 10, 0 is no effect, 10 is complete control
[26] = Rate 500 g/ha, Postemergence, scale 0 to 10
[27] = Preemergence, Rate 31 g/ha, visual rating, scale 0 to 10 (0 no effect, 10 complete control)
[28] = Rate 31 g/ha, Postemergence, scale 0 to 10
[29] = Preemergence, Rate 62 g/ha, scale of 0 to 10 where 0 is no effect and 10 is complete control
[30] = Rate 125 g/ha, Postemergence, scale 0 to 10

CC(C)N(C(=O)n1oc(=O)n(C2CCCCC2C(F)(F)F)c1=O)c1ccc(F)cc1 (stereo not shown) [Compound 99]
4: Crabgrass plant response rating [2, 11] | Plant response rating, Blackgrass [4, 14] | Blackgrass plant response rating [4, 15]
7: Plant response rating, Blackgrass [4, 18]
9: Morningglory plant response rating [3, 6]
5: Barnyardgrass plant response rating [1, 8] | Crabgrass plant response rating [2, 12] | Morningglory plant response rating [3, 17] | Blackgrass plant response rating [4, 6]
1: Morningglory plant response rating [3, 16]
2: Crabgrass plant response rating [2, 10]
8: Barnyardgrass plant response rating [1, 6] | Crabgrass plant response rating [2, 6] | Plant response rating, Crabgrass [2, 13] | Crabgrass plant response rating [2, 17]
0: Barnyardgrass plant response rating [1, 5] | Barnyardgrass plant response rating [1, 7] | Barnyardgrass plant response rating [1, 9] | Crabgrass plant response rating [2, 16] | Morningglory plant response rating [3, 12] | Plant response rating, Morningglory [3, 13] | Plant response rating, Morningglory [3, 14] | Morningglory plant response rating [3, 15] | Blackgrass plant response rating [4, 12]
6: Blackgrass plant response rating [4, 11] | Blackgrass plant response rating [4, 17]
10: Plant response rating, Crabgrass [2, 14] | Crabgrass plant response rating [2, 15] | Plant response rating, Crabgrass [2, 18]
3: Morningglory plant response rating [3, 10] | Morningglory plant response rating [3, 11] | Plant response rating, Morningglory [3, 18] | Blackgrass plant response rating [4, 10] | Plant response rating, Blackgrass [4, 13] | Blackgrass plant response rating [4, 16]

CCc1noc(CC)c1-n1c(=O)on(C(=O)N(c2ccc(F)cc2)C(C)C)c1=O [Compound 102]
2: Plant response rating, Blackgrass [4, 14]
0: Barnyardgrass plant response rating [1, 5] | Barnyardgrass plant response rating [1, 7] | Barnyardgrass plant response rating [1, 8] | Barnyardgrass plant response rating [1, 9] | Crabgrass plant response rating [2, 10] | Crabgrass plant response rating [2, 11] | Crabgrass plant response rating [2, 12] | Plant response rating, Crabgrass [2, 13] | Plant response rating, Crabgrass [2, 14] | Crabgrass plant response rating [2, 16] | Morningglory plant response rating [3, 10] | Morningglory plant response rating [3, 12] | Plant response rating, Morningglory [3, 13] | Plant response rating, Morningglory [3, 14] | Morningglory plant response rating [3, 16] | Blackgrass plant response rating [4, 10] | Blackgrass plant response rating [4, 11] | Blackgrass plant response rating [4, 12] | Plant response rating, Blackgrass [4, 13] | Blackgrass plant response rating [4, 16] | Blackgrass plant response rating [4, 17]
1: Morningglory plant response rating [3, 11]
5: Crabgrass plant response rating [2, 17]
3: Morningglory plant response rating [3, 17]

Cc1nn(C)c(C)c1-n1c(=O)on(C(=O)N(c2ccccc2)C(C)C)c1=O [Compound 120]
6: Crabgrass plant response rating [2, 12] | Plant response rating, Crabgrass [2, 13] | Blackgrass plant response rating [4, 11]
3: Plant response rating, Blackgrass [4, 13]
0: Barnyardgrass plant response rating [1, 5] | Barnyardgrass plant response rating [1, 7] | Barnyardgrass plant response rating [1, 8] | Barnyardgrass plant response rating [1, 9] | Morningglory plant response rating [3, 12] | Plant response rating, Morningglory [3, 13] | Plant response rating, Morningglory [3, 14] | Morningglory plant response rating [3, 19] | Blackgrass plant response rating [4, 12] | Blackgrass plant response rating [4, 16]
7: Crabgrass plant response rating [2, 10] | Morningglory plant response rating [3, 10] | Plant response rating, Blackgrass [4, 14]
4: Morningglory plant response rating [3, 16] | Blackgrass plant response rating [4, 10]
5: Crabgrass plant response rating [2, 16]
8: Morningglory plant response rating [3, 11] | Morningglory plant response rating [3, 17] | Blackgrass plant response rating [4, 19] | Blackgrass plant response rating [4, 17]
9: Crabgrass plant response rating [2, 11] | Plant response rating, Crabgrass [2, 14] | Crabgrass plant response rating [2, 19] | Crabgrass plant response rating [2, 17]

Cc1cnn(C)c1-n1c(=O)on(C(=O)N(c2ccc(F)cc2)C(C)C)c1=O [Compound 125]
2: Plant response rating, Morningglory [3, 25] | Morningglory plant response rating [3, 26]
0: Barnyardgrass plant response rating [1, 20] | Barnyardgrass plant response rating [1, 5] | Plant response rating, Barnyardgrass [1, 21] | Barnyardgrass plant response rating ([1]; Rate 250 g/ha, headed Pre-emergence (flood test species), scale 0 to 10 (0 no effect, 10 complete control)) | Plant response rating, Barnyardgrass [1, 22] | Barnyardgrass plant response rating [1, 8] | Barnyardgrass plant response rating ([1]; Rate 1000 g/ha, Pre-emergence (as headed), scale 0 to 10) | Barnyardgrass plant response rating ([1]; Rate 2000 g/ha, Pre-emergence (as headed), scale 0 to 10, 0 no effect, 10 complete control) | Crabgrass plant response rating [2, 10] | Crabgrass plant response rating [2, 12] | Crabgrass plant response rating (0 to 10 scale) [2, 23] | Crabgrass plant response rating [2, 24] | Crabgrass plant response rating [2, 19] | Crabgrass plant response rating [2, 16] | Plant response rating, Crabgrass [2, 25] | Crabgrass plant response rating [2, 26] | Morningglory plant response rating [3, 10] | Morningglory plant response rating [3, 12] | Morningglory plant response rating (0 to 10 scale) [3, 23] | Morningglory plant response rating [3, 24] | Morningglory plant response rating [3, 19] | Morningglory plant response rating [3, 16] | Blackgrass plant response rating [4, 10] | Blackgrass plant response rating [4, 12] | Blackgrass plant response rating (0 to 10 scale) [4, 23] | Blackgrass plant response rating [4, 19] | Blackgrass plant response rating [4, 16] | Plant response rating, Blackgrass [4, 25] | Blackgrass plant response rating [4, 26]

Cc1noc(C)c1-n1c(=O)on(C(=O)N(c2ccc(F)cc2)C(C)C)c1=O [Compound 155]
0: Barnyardgrass plant response rating [1, 20] | Barnyardgrass plant response rating ([1]; Rate 31 g/ha, Postemergence section (flood test species), scale 0 to 10) | Barnyardgrass plant response rating ([1]; Rate 62 g/ha, Postemergence section, flood test species, scale of 0 to 10 where 0 is no effect and 10 is complete control) | Plant response rating, Barnyardgrass [1, 21] | Crabgrass plant response rating [2, 27] | Crabgrass plant response rating [2, 12] | Crabgrass plant response rating (0 to 10 scale) [2, 23] | Crabgrass plant response rating [2, 28] | Morningglory plant response rating [3, 10] | Morningglory plant response rating [3, 27] | Morningglory plant response rating [3, 12] | Morningglory plant response rating (0 to 10 scale) [3, 23] | Morningglory plant response rating [3, 24] | Morningglory plant response rating [3, 28] | Morningglory plant response rating [3, 16] | Blackgrass plant response rating [4, 10] | Blackgrass plant response rating [4, 27] | Blackgrass plant response rating [4, 12] | Blackgrass plant response rating (0 to 10 scale) [4, 23] | Blackgrass plant response rating [4, 28] | Blackgrass plant response rating [4, 16]
8: Plant response rating, Crabgrass [2, 25]
2: Crabgrass plant response rating [2, 10] | Plant response rating, Morningglory [3, 25] | Blackgrass plant response rating [4, 24] | Plant response rating, Blackgrass [4, 25]
6: Crabgrass plant response rating [2, 24]
1: Crabgrass plant response rating [2, 16]

COc1nc(OC)nc(N(C(=O)n2oc(=O)n(C(C)C)c2=O)C(C)C)n1 [Compound 182]
0: Barnyardgrass plant response rating ([1]; Rate 62 g/ha, headed Pre-emergence (flood test species), scale 0 to 10 (0 no effect, 10 complete control)) | Barnyardgrass plant response rating ([1]; Rate 125 g/ha, Pre-emergence, flood test species, scale 0 to 10 where 0 is no effect and 10 is complete control) | Barnyardgrass plant response rating ([1]; Rate 250 g/ha, Pre-emergence, flood-test species, scale 0 to 10, 0 is no effect, 10 is complete control) | Plant response rating, Barnyardgrass [1, 22] | Crabgrass plant response rating [2, 29] | Crabgrass plant response rating (0 to 10 scale) [2, 23] | Crabgrass plant response rating [2, 24] | Crabgrass plant response rating [2, 19] | Crabgrass plant response rating [2, 16] | Crabgrass plant response rating [2, 30] | Plant response rating (0 to 10; 0 is no effect, 10 is complete control), Crabgrass ([2]; Rate 250 g/ha, Postemergence) | Crabgrass plant response rating [2, 26] | Morningglory plant response rating [3, 29] | Morningglory plant response rating (0 to 10 scale) [3, 23] | Morningglory plant response rating [3, 24] | Morningglory plant response rating [3, 19] | Morningglory plant response rating [3, 16] | Morningglory plant response rating [3, 30] | Plant response rating (0 to 10; 0 is no effect, 10 is complete control), Morningglory ([3]; Rate 250 g/ha, Postemergence) | Morningglory plant response rating [3, 26] | Blackgrass plant response rating [4, 29] | Blackgrass plant response rating (0 to 10 scale) [4, 23] | Blackgrass plant response rating [4, 24] | Blackgrass plant response rating [4, 19] | Blackgrass plant response rating [4, 16] | Blackgrass plant response rating [4, 30] | Plant response rating (0 to 10; 0 is no effect, 10 is complete control), Blackgrass ([4]; Rate 250 g/ha, Postemergence) | Blackgrass plant response rating [4, 26]
